Assay results from ChEMBL document CHEMBL1144127, “Montadial A, a cytotoxic metabolite from Bondarzewia montana” (J Nat Prod, 1999).
Active and inactive are the calls of the source.

Tests used:
[1] = tested on: HL-60; assay: Cytotoxicity against human HL-60 cells at 5 ug/mL; assay type: functional, cell-based
[2] = tested on: L1210; assay: Cytotoxicity against mouse L1210 cells at 10 ug/mL; assay type: functional, cell-based
[3] = tested on: Setaria italica; assay: Phytotoxicity against Setaria italica at 50 ug/disk; assay type: functional, organism-based

Measured: Activity

C/C(C=O)=C\Cc1cc(C=O)cc(O)c1O
active: all assays above
